Data published in patent US20220401324A1, “COSMETIC PREPARATION WITH ANISIC ACID AND LEVULINIC ACID, HAVING SELECTIVE ANTIMICROBIAL EFFECT” (BEIERSDORF AG, priority 2019, published 2022).

What was measured:
[1] = system: S. epidermidis (DSM 1798); assay: Suspension test with S. epidermidis; type: cell-based, Staphylococcus epidermidis; settings: BHI medium, sampled after 1 h, 3 h and 6 h
Procedure: (§1) The effect of the formulations according to the invention was further tested in suspension tests with S. epidermidis and C. acnes. […] These liquid stock cultures were used to prepare a first passage. Here, a sterile disposable inoculation loop was used to streak the relevant culture on an agar plate (C. acnes: COST agar, S. epidermidis: COAST agar) and the culture was then incubated. The cultures of C. acnes were incubated at 37° C. for 5 days, whereas the cultures of S. epidermidis were incubated at 37° C. for 24 h. Said first passage was then used to prepare a second passage by picking of a few colonies using a sterile disposable inoculation loop and subsequent streaking thereof onto a new agar plate. Said second passage was then incubated at the appropriate temperature for 5 days or 24 h. The second passage obtained was then used for the suspension test.
(§2) To prepare the suspensions, a few colonies of the second passage were removed using a sterile inoculation loop and added to 10 mL of medium in a baffled flask containing 5 g of glass beads (4 mm diameter) and gently shaken for 3 min. Thereafter, optical density (OD) was used to set the approximate number of cells per mL. Optical density was determined at 600 nm using an Eppendorf photometer. The OD obtained was adjusted to a value around 0.8 (±0.01) and then diluted again 1:50. […]

C. acnes (DSM 1897) = assay: Suspension test with C. acnes; type: cell-based, Cutibacterium acnes; settings: anaerobic medium, sampled after 1 h, 3 h and 6 h
Procedure: as §1, §2

Question: How did the “growth of the aerobic bacterium S. epidermidis (FIGS. 4 and 5)” value [1] turn out when `CC(=O)CCC(=O)O` [levulinic acid, 4-oxopentanoic acid] was run?
Answer: Its value is “does not significantly affect the growth”.

Question: And the “cell count of the anaerobic bacterium C. acnes (FIGS. 4 and 5)” value (C. acnes (DSM 1897))?
Answer: The value was “does not lead to a reduction in the cell count”.

Question: Which “growth of the aerobic bacterium S. epidermidis (FIGS. 4 and 5)” value [1] does the source give for `COc1ccc(C(=O)O)cc1` [anisic acid, 4-methoxybenzoic acid] here?
Answer: The value was “does not significantly affect the growth”.

Question: What about the “cell count of the anaerobic bacterium C. acnes (FIGS. 4 and 5)” value (C. acnes (DSM 1897)) of the same compound?
Answer: Its value is “does not lead to a reduction in the cell count”.
